“Also recorded” adds a separate entry of the source. Ends that are not written are not given here.
How the values were obtained:
HT22 cells = assay: Quantitative detection of ROS (DCFH-DA) in the oxygen-glucose deprivation (OGD) cell model; assay type: cell-based, Mouse; conditions: OGD 16 h, 24 h reoxygenation, OGD plus vehicle = 100%, mean ± standard deviation
Experimental: Cell culture: Mouse hippocampal HT22 cells were cultured in DMEM and 10% serum at 37°C in a 5% CO2 incubator.
Oxygen-glucose deprivation (OGD) cell model: HT22 cells were seeded at a density of about 1 ×10^5 into 96-well plates and cultured for 24 h in a 37°C incubator with 5% CO2/95% air in DMEM and 10% serum. After placing HT22 cells in glucose-free medium, they were transferred to a sealed container containing a 5% CO2/95% N2 mixture and incubated at 37°C for 16 h. The glucose-free medium was then replaced with a normal medium containing glucose, and the mixture was incubated for 24 h in a 37°C incubator containing 5% CO2/95% air for reoxygenation.
Experimental grouping: Normally cultured HT22 cells were used as the control group. HT22 cells subjected to OGD were reoxygenated in normal culture medium and treated separately with vehicle, QD202 (0.1 µM, 1 µM, 5 µM), and the ROS scavenger edaravone (200 µM). After 24 h of reoxygenation, quantitative detection of ROS was performed.
Quantitative detection of ROS: Reactive oxygen species were detected using the Beyotime reactive oxygen species detection kit and the fluorescent probe DCFH-DA. DCFH-DA was diluted 1:1000 with serum-free culture medium to a final concentration of 10 µM. The culture medium was removed and the diluted DCFH-DA was added. The cells were then incubated in a 37°C cell culture incubator for 20 min. The cells were washed three times with serum-free cell culture medium to thoroughly remove any DCFH-DA that had not entered the cells. Observation was performed under a fluorescence microscope, followed by quantification of the average fluorescence intensity using Image J software.
Data analysis: Three parallel experiments were performed. The average fluorescence intensity of the OGD plus vehicle group was set as the standard value of 100% for normalization of the fluorescence intensity of cells in each group. Data were expressed as mean ± standard deviation, and […] tests were performed on the data of each group using One-Way ANOVA.

homozygous DIR-Ki mice = assay: Novel object recognition test in DIR-Ki mice; assay type: in vivo; conditions: intravenous, 7 consecutive days, FIG. 15
Experimental: Thirty homozygous DIR-Ki mice were divided into three groups: the control group (HO+PBS), the QD202 1 mg/kg group (HO+QD202 1 mpk), and the QD202 5 mg/kg group (HO+QD202 5 mpk). After 7 consecutive days of intravenous administration in the QD202-treated groups, the novel object recognition test was initiated.
Square PVC plastic box (dimensions: 25 cm × 25 cm × 30 cm), two identical size 1 batteries, one plastic toy of the same height as the batteries, experimental observation box, camera, and video recording software
On the day of the experiment, the mice were allowed to acclimatize to the experimental room for 30 min in advance. The test was divided into an acclimation period and a testing period.
Familiarization phase: Two identical batteries were placed 5 cm away from a box wall, with a 5 cm gap between the two batteries. The mice were placed in the center of the area and allowed to explore freely for 10 min. […]
Testing period: A toy with size and height similar to those of the battery was randomly used to replace one battery and placed in the same position as the original battery. […] The entire process was recorded using a camera. […] After the experiment, the time taken for the mice to explore novel and familiar objects in the video was counted manually, and the time recognition index of the novel objects was calculated. […]

[1] = tested on: hippocampal CA1 pyramidal neurons; assay: Whole-cell patch-clamp recording of spontaneous excitatory postsynaptic current (sEPSC) in hippocampal brain sections; assay type: cell-based, C57 mouse; conditions: 5 µM polypeptide applied for 5 min; clamp voltage -70 mV; FIGS. 8A-8C
Source text: • Polypeptide QD202 was synthesized according to the amino acid sequence set forth in SEQ ID NO: 1. • Polypeptide QD202 N'-1 was synthesized according to the amino acid sequence set forth in SEQ ID NO: 2. • Polypeptide QD202 C'-1 was synthesized according to the amino acid sequence set forth in SEQ ID NO: 3. • Polypeptide QD202 C'-2 was synthesized according to the amino acid sequence set forth in SEQ ID NO: 4. • Polypeptide SS8 was synthesized according to the amino acid sequence set forth in SEQ ID NO: 54.
0.1-0.15 ml of 20% ethyl carbamate was injected into the abdominal cavity of a C57 mouse of 2 to 3 months old for anesthesia; a head was quickly cut, and brain tissues were stripped and put into artificial cerebrospinal fluid (ACSF) ice-water mixed liquid into which mixed gas (95%O2 and 5%CO2) was introduced in advance, and stood for 2 min; the ACSF included the following components: […] of NaCl, […] of KCl, 0.12 mM of NaH2PO4, […] of CaCl2, 0.12 mM of MgCl2, 25 mM of NaHCO3 and 11 mM of glucose. A hippocampus coronal brain section of […] was cut by a vibration slicer. […] The recorded data were analyzed by Minianalysis software.

Male SD rats = conditions: rat, in vivo

In the case of “QD202: Polypeptide synthesized according to the amino acid sequence set forth in SEQ ID NO: 1; ATP6V1B2 regulator / DIR regulator (YGRKKRRQRRRSPVDVVCS; not fully specified)”, the “inhibition rate of ROS” value (HT22 cells; 0.1 µM) is reported as 17.55±12.95%, the “inhibition rate of ROS” value (HT22 cells; 1 µM) is reported as 60.63±8.27% and the “inhibition rate of ROS” value (HT22 cells; 5 µM) is reported as 70.09±2.84%. The “novel object recognition index” value (homozygous DIR-Ki mice; 1.0 mg/kg) was “significantly improved”, the “novel object recognition index” value (homozygous DIR-Ki mice; 5.0 mg/kg) was “significantly improved” and the “excitatory postsynaptic current amplitude” value [1] was “no influence”. For the same substance, the “release frequency of excitatory postsynaptic current” value [1] was “increasing” and the infarct volume (Male SD rats) was “lower than that of the Model + QD202 placebo group, with a statistical difference (p<0.05); also recorded: lower than that of the Model + QD202 placebo group, with extremely significant statistical differences (p<0.001)”.
